Among the data in US8877684B2, “Pesticidal composition comprising a synthetic compound useful as nodulation agent of leguminous plants and an insecticide compound” (Bayer CropScience AG, priority 2006, dated 2014) are mortality values, retold here.

The test system of one assay is Phaedon cochleariae. Briefly: Phaedon cochleariae test: dipped cabbage leaves infested with mustard beetle larvae. It counts as in vivo. As to conditions: foliar, 96 h, leaf dip, after 4 d. The protocol:
(§1) The expected efficacy of a given combination of two compounds is calculated as follows (see Colby, S. R., “Calculating Synergistic and antagonistic Responses of Herbicide Combinations”, Weeds 15, pp. 20-22, 1967):
(§2) • X is the efficacy expressed in % mortality of the untreated control for test compound A at a concentration of m ppm respectively m g/ha; • Y is the efficacy expressed in % mortality of the untreated control for test compound B at a concentration of n ppm respectively n g/ha; • E is the efficacy expressed in % mortality of the untreated control using the mixture of A and B at m and n ppm respectively m and n g/ha; then is
(§3) If the observed insecticidal efficacy of the combination is higher than the one calculated as “E”, then the combination of the two compounds is more than additive, i.e., there is a synergistic effect.
To produce a suitable preparation of active compound, 1 part by weight of active compound is mixed with the stated amount of solvent and emulsifier, and the concentrate is diluted with emulsifier-containing water to the desired concentration. Cabbage leaves (Brassica oleracea) are treated by being dipped into the preparation of the active compound of the desired concentration and are infested with larvae of the mustard beetle (Phaedon cochleariae) as long as the leaves are still moist.
(§4) After the specified period of time, the mortality in % is determined. […]

Another assay has as its system Myzus persicae. Briefly: Myzus persicae test: cabbage leaves infested with green peach aphid dipped into the preparation. It counts as in vivo. As to conditions: foliar, 96 h, leaf dip, after 4 d. The protocol:
as §1, §2, §3
To produce a suitable preparation of active compound, 1 part by weight of active compound is mixed with the stated amount of solvent and emulsifier, and the concentrate is diluted with emulsifier-containing water to the desired concentration. Cabbage leaves (Brassica oleracea) which are heavily infested by the green peach aphid (Myzus persicae) are treated by being dipped into the preparation of the active compound of the desired concentration.
as §4

Take `O=[N+]([O-])NC1=NCCN1Cc1ccc(Cl)nc1` [Imidacloprid]: in the assay with Phaedon cochleariae, the mortality at 20 ppm was 70%. Besides, the mortality at 0.16 ppm in the assay with Myzus persicae came to 10%.

Usually mortality stands for the percentage killed.
